This is an account of results in ChEMBL document CHEMBL4706547, “Discovery and structure-activity relationship studies of 1-aryl-1H-naphtho[2,3-d][1,2,3]triazole-4,9-dione derivatives as potent dual inhibitors of indoleamine 2,3-dioxygenase 1 (IDO1) and trytophan 2,3-dioxygenase (TDO)” (Eur J Med Chem, 2020).

Data set [1] deals with T1, Tryptophan 2,3-dioxygenase (Homo sapiens, UniProt P48775). The data set can be described thus: Inhibition of TDO (unknown origin) assessed as reduction in L-kynurenine formation using L-tryptophan as substrate incubated for 30 mins microplate spectrophotometry analysis.
In data set [2] the target is T2, Indoleamine 2,3-dioxygenase 1 (Homo sapiens, UniProt P14902).
In a further data set the test system is LL2. As to conditions: dose 30.0 mg/kg, time day <=20.
A short description of data set [3]: Antitumor activity against […] cells allografted in C57BL/6 mouse assessed as tumor growth inhibition at 30 mg/kg, ip administered for 11 days and measured upto 20 days relative to control. As to conditions: Hepa1-6, ip, time day <=20, read-out: TGI. Type of data set: functional.
Data set [4] is described as follows: Antitumor activity against […] cells allografted in C57BL/6 mouse assessed as tumor growth inhibition at 30 mg/kg, ip administered for 11 days and measured upto 20 days relative to control. Type of data set: functional. As to conditions: LL/2, ip, time day <=20, read-out: TGI.
Data set [5] in a line: Solubility of compound. Format: physicochemical.
The nature of data set [6]: Toxicity in C57BL/6 mouse […] with […] cells assessed as effect on body weight at 30 mg/kg, ip administered for 11 days and measured upto 20 days. Format: organism-based. As to conditions: in vivo, time <=20 day. On the technique in general: Xenograft models place foreign cells or tissue in a host animal.
A short description of data set [7]: Toxicity in C57BL/6 mouse […] with […] cells assessed as effect on body weight at 30 mg/kg, ip administered for 11 days and measured upto 20 days. As to conditions: in vivo, time <=20 day. Format: organism-based.
Data set [8] is described as follows: Redox activity of compound assessed as increase in H2O2 production incubated for 15 mins by HRP-PR staining based fluorometric analysis. Format: physicochemical. As to conditions: 0.25 h.
Data set [9] has as its target T2, Indoleamine 2,3-dioxygenase 1. The data set can be described thus: Inhibition of IDO1 in IFN-gamma-induced human HeLa cells assessed as reduction in L-kynurenine formation using L-tryptophan as substrate incubated for 24 hrs.
Data set [10] in a line: Redox activity of compound assessed as increase in H2O2 production at > 50 uM incubated for 15 mins by HRP-PR staining based fluorometric analysis relative to control. Type of data set: physicochemical. As to conditions: 0.25 h.
The target of data set [11] is T1, Tryptophan 2,3-dioxygenase. Briefly: Inhibition of TDO in human A 172 cells assessed as reduction in L-kynurenine formation using L-tryptophan as substrate incubated for 24 hrs. Format: cell-based.

In brackets after ≈: the same amount, converted by molar mass. Activity calls are given as the source filed them. No cut-off for these calls is given here.

T2 sequence (P14902 whole entry): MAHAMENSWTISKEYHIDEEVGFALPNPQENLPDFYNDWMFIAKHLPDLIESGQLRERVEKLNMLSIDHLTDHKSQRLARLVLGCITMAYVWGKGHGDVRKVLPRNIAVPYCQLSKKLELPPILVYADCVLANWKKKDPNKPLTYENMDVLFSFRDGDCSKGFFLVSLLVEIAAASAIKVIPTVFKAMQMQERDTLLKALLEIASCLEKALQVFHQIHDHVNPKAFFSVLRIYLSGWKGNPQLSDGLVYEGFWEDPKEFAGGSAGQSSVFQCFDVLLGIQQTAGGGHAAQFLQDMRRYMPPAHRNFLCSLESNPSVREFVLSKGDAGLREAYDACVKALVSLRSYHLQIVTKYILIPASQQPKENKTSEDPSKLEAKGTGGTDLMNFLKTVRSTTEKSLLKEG
T1 sequence (P48775 whole entry): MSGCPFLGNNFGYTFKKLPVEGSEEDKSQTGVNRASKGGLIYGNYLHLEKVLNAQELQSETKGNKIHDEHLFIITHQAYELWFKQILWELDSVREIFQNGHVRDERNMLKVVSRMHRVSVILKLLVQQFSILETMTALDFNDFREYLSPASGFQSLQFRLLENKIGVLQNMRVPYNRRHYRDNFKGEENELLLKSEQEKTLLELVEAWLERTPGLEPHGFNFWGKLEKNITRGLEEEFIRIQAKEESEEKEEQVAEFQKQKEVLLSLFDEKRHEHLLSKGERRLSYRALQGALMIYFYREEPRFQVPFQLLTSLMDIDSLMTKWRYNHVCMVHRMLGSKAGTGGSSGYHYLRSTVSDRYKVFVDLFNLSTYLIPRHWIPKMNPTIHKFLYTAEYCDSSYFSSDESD

By IC50 is commonly meant the point on the concentration scale where inhibition reaches its midpoint. With `O=C1c2ccccc2C(=O)c2c1nnn2-c1ccccc1Cl`, the IC50 in [1] and in [2] was > 10000 nM in each case.
Consider `CC(=O)Nc1cccc(-n2nnc3c2C(=O)c2ccccc2C3=O)c1`, for which the IC50 worked out at 132 nM in data set [1] and 81 nM in [2].
On the same counts, the results for `O=C1c2cc(O)ccc2C(=O)c2c1nnn2-c1ccc(F)c(Cl)c1` are 171 nM and 144 nM.
Compound `CN1CCN(C(=O)c2cccc(Cn3nnc4c3C(=O)c3ccccc3C4=O)c2)CC1` came in with an IC50 in data set [2] of 658 nM.
On to `O=C1c2ccccc2C(=O)c2c1nnn2-c1cc(Cl)c(F)c(Cl)c1`, for which the IC50 in data set [1] turned out to be 34 nM; in data set [2], 33 nM.
As for `O=C1c2ccccc2C(=O)c2c1nnn2-c1ccc2ccncc2c1`, the IC50 came out at 34 nM in data set [1] and 40 nM in [2].
As to `O=C1c2ccccc2C(=O)c2c1nnn2-c1cccc(F)c1`, the half-inhibitory concentration (IC50) in [1] worked out at 101 nM; in data set [2] it was 52 nM.
For `O=C1c2ccccc2C(=O)c2c1nnn2Cc1ccccc1`, in that order: 858 nM and 886 nM.
On to `O=C1c2ccccc2C(=O)c2c1nnn2-c1ccc(C(F)(F)F)c(Cl)c1`, for which the IC50 in data set [1] amounted to 25 nM; in [2] it was 30 nM.
On the same counts, the results for `COC(=O)c1ccc(-n2nnc3c2C(=O)c2ccccc2C3=O)cc1` are 58 nM and 34 nM.
For `O=C1c2ccccc2C(=O)c2c1nnn2-c1ccc([N+](=O)[O-])cc1`, the IC50 is 48 nM in [1] and 33 nM in data set [2].
For `O=C1c2ccccc2C(=O)c2c1nnn2-c1ccc(F)cc1`, in that order: 49 nM and 58 nM.
Take `O=C1c2ccccc2C(=O)c2c1nnn2-c1ccc(Cl)nc1`: the IC50 was 25 nM in [1] and 27 nM in [2].
As to `O=C(O)c1cccc(-n2nnc3c2C(=O)c2ccccc2C3=O)c1`, the IC50 in data set [1] came to 71 nM; in data set [2], 114 nM.
`O=C1c2ccccc2C(=O)c2c1nnn2-c1cccc([N+](=O)[O-])c1`: the IC50 worked out at 28 nM in [1] and 29 nM in [2].
For the compound `O=C1c2ccccc2C(=O)c2c1nnn2-c1ccc2[nH]ncc2c1`, the IC50 amounted to 42 nM in data set [1] and 45 nM in data set [2].
As for `O=C1c2ccccc2C(=O)c2c1nnn2-c1ccc(-c2nnn[nH]2)cc1`, the figures for the IC50 in data set [1] and in data set [2] were 25 nM and 60 nM, respectively.
Turning to `COc1ccc2c(c1)C(=O)c1c(nnn1-c1ccc(F)c(Cl)c1)C2=O`, the IC50 in data set [1] and in data set [2] was > 10000 nM each time.
For `NS(=O)(=O)c1ccc(-n2nnc3c2C(=O)c2ccccc2C3=O)cc1`, the IC50 came to 48 nM in data set [1] and 30 nM in data set [2].
Consider `O=C1c2ccccc2C(=O)c2c1nnn2-c1ccc(Cl)c([N+](=O)[O-])c1`, for which the IC50 in data set [1] and in [2] was 15 nM in each case.
Consider `NS(=O)(=O)NCCNc1nonc1C(=NO)Nc1ccc(F)c(Br)c1` [EPACADOSTAT], for which the IC50 in data set [1] was > 10000 nM.
Turning to `Cc1cccc(-n2nnc3c2C(=O)c2ccccc2C3=O)c1`, the half-inhibitory concentration (IC50) in [1] was determined as 64 nM; in data set [2] it was 122 nM.
In the case of `NS(=O)(=O)NCCNc1nonc1/C(=N/O)Nc1ccc(F)c(Br)c1` [EPACADOSTAT], in the data set with LL2, the TGI result was “Active”. In addition, in data set [3], the inhibition in vivo at 30 mg/kg stood at 50%.
Usually solubility stands for the dissolved amount per volume that the medium holds. Read a high solubility as a readily soluble substance. As to `O=C1c2cc(F)ccc2C(=O)c2c1nnn2-c1ccc(F)c(Cl)c1`, the inhibition in vivo at 30 mg/kg in data set [4] turned out to be 62.5%; in data set [3], 80%. In data set [5], this compound had a solubility of 0.16 µM (≈ 0.0553 µg/mL). The Activity result in data set [6] is recorded as “Non-Toxic”; in data set [7], “Non-Toxic”; in data set [8], “Not Active”; in data set [10], “Not Active”. Further, the IC50 in data set [1] was 4 nM; in data set [2] it was 5 nM; in data set [9], 98 nM; in [11], 59 nM.
Regarding `N#Cc1ccc(-n2nnc3c2C(=O)c2ccccc2C3=O)cc1`, the IC50 in data set [1] is 66 nM; in data set [2], 26 nM.
Take `O=C1c2ccccc2C(=O)c2c1nnn2-c1ccc2[nH]cnc2c1`: the results for the IC50 in data set [1] and in data set [2] were 104 nM and 78 nM, respectively.
Turning to `O=C1c2ccc(O)cc2C(=O)c2c1nnn2-c1ccc(F)c(Cl)c1`, the IC50 in data set [1] was 384 nM; in data set [2] it was 355 nM.
On the same counts, the results for `O=C1c2ccccc2C(=O)c2c1nnn2-c1ccc(Cl)c(F)c1` are 18 nM and 20 nM.
On to `O=C1c2ccccc2C(=O)c2c1nnn2-c1ccc(Cl)c(Cl)c1`, for which the concentration for half-maximal inhibition (IC50) stood at 18 nM in [1] and 23 nM in data set [2].
On the same counts, the results for `COc1ccc2c(c1)C(=O)c1nnn(-c3ccc(F)c(Cl)c3)c1C2=O` are 105 nM and 163 nM.
As for `O=C1c2ccccc2C(=O)c2c1nnn2-c1ccc(F)c(Cl)c1`, the 50% inhibitory concentration (IC50) in [1] turned out to be 14 nM; in data set [2], 13 nM.
Turning to `O=C1c2ccc(F)cc2C(=O)c2c1nnn2-c1ccc(F)c(Cl)c1`, the IC50 in [1] and in data set [2] was 10 nM each time.
Turning to `O=C1c2ccccc2C(=O)c2c1nnn2-c1cccc(Cl)c1`, the results for the IC50 in [1] and in [2] were 36 nM and 40 nM, respectively.
`O=C1c2ccccc2C(=O)c2c1nnn2-c1ccc(Cl)cc1`: the IC50 is 15 nM in data set [1] and 23 nM in data set [2].
With `O=C1c2ccccc2C(=O)c2c1nnn2-c1cccnc1`, the IC50 came out at 21 nM in data set [1] and 23 nM in data set [2].
In the case of `CN1CCN(c2ccc(-n3nnc4c3C(=O)c3ccccc3C4=O)cc2)CC1`, the IC50 in [1] and in data set [2] was > 10000 nM throughout.
As to `O=C1c2ccccc2C(=O)c2c1nnn2-c1ccccc1`, the IC50 in [1] was 70 nM; in [2] it was 100 nM.
Consider `O=C1c2ccccc2C(=O)c2c1nnn2-c1cnc(Cl)c(Cl)c1`, for which the IC50 in [1] is 248 nM; in [2] it was 113 nM.
